# Reference: ChEMBL document CHEMBL4118278, “Design, synthesis and biological evaluation of deuterated Vismodegib for improving pharmacokinetic properties” (Bioorg Med Chem Lett, 2018)
# Assays:
# Assay type in all cases: ADME, organism-based
# Conditions in all cases: in vivo
# [1] = Tmax in CD-1 mouse at 5 mg/kg, po administered as single dose by LC-MS/MS analysis
# [2] = Half life in CD-1 mouse at 5 mg/kg, po administered as single dose by LC-MS/MS analysis
# [3] = AUC (0 to t) in CD-1 mouse at 5 mg/kg, po administered as single dose by LC-MS/MS analysis
# [4] = Cmax in CD-1 mouse at 5 mg/kg, po administered as single dose by LC-MS/MS analysis; design: dose 5 mg/kg, route oral
# [5] = AUC (0 to infinity) in CD-1 mouse at 5 mg/kg, po administered as single dose by LC-MS/MS analysis; design: dose 5 mg/kg, route oral, time infinity
Tmax [1],half-life [2],AUC(0-t) [3],Cmax [4],AUC(0-inf) [5],SMILES
1 h,2.82 h,6280 ng·h/mL,1610 ng/mL,8290 ng·h/mL,[2H]c1cc(Cl)c(-c2ccccn2)c([2H])c1NC(=O)c1ccc(S(C)(=O)=O)cc1Cl
1 h,5.62 h,4050 ng·h/mL,854 ng/mL,7660 ng·h/mL,CS(=O)(=O)c1ccc(C(=O)Nc2ccc(Cl)c(-c3ccccn3)c2)c(Cl)c1 [VISMODEGIB]
1 h,8.55 h,6510 ng·h/mL,1870 ng/mL,17100 ng·h/mL,[2H]c1nc(-c2cc(NC(=O)c3ccc(S(C)(=O)=O)cc3Cl)ccc2Cl)c([2H])c([2H])c1[2H]
1 h,2.56 h,6110 ng·h/mL,972 ng/mL,6110 ng·h/mL,[2H]c1cc(Cl)c(-c2nc([2H])c([2H])c([2H])c2[2H])c([2H])c1NC(=O)c1ccc(S(C)(=O)=O)cc1Cl
